Where a SMILES comes first, the peptide text is derived from it.
What was measured:
[1] = test system: RMA-HHD target cells pulsed with peptide; conditions: for CTL cytotoxicity to target cell presenting each peptide: immunogenicity of each peptide in each pool, FIG. 2; for CTL cytotoxicity to target cell presenting each peptide / induction of cytotoxic T cells: 51Cr release; for induction of cytotoxic T cells: peptide-bound liposome prepared from the single peptide, FIG. 3
[2] = test system: T cells that produce interferon gamma (IFN-γ) antigen-specifically; assay: ELISPOT (IFN-γ) with splenocytes of immunized mouse; assay type: in vivo, HHD mouse; conditions: for IFN-γ production due to the stimulation with each peptide: immunogenicity of each peptide in each pool, FIG. 2
[3] = test system: recombinant vaccinia virus that expresses HCV-NS3 gene (VV-NS3); design: species or system HHD mouse; conditions: mouse, in vivo
[4] = immunization with recombinant virus VV-NS3, ELISPOT, FIG. 7

| Molecule | CTL cytotoxicity to target cell presenting each peptide [1] | IFN-γ production due to the stimulation with each peptide ([2]; ELISPOT) | induction of cytotoxic T cells [1] | vaccine effect of peptide-bound liposome prepared from single peptide [3] | further results |
| --- | --- | --- | --- | --- | --- |
| CC[C@H](C)[C@H](NC(=O)[C@H](CC(C)C)NC(=O)[C@H](CS)NC(=O)[C@H](CCCCN)NC(=O)[C@H](Cc1c[nH]c2ccccc12)NC(=O)[C@H](CCSC)NC(=O)[C@@H](N)CCC(N)=O)C(=O)N[C@@H](CCCNC(=N)N)C(=O)N[C@@H](CC(C)C)C(=O)O [compound 8, Gln Met Trp Lys Cys Leu Ile Arg Leu] | strongly induced antigen-specific CTL |  |  |  |  |
| CC[C@H](C)[C@H](NC(=O)[C@@H](NC(=O)[C@H](CO)NC(=O)[C@@H](NC(=O)[C@H](CC(=O)O)NC(=O)[C@H](CC(C)C)NC(=O)CN)C(C)C)C(C)C)C(=O)N1CCC[C@H]1C(=O)N[C@H](C(=O)O)[C@@H](C)O [compound 14, Gly Leu Asp Val Ser Val Ile Pro Thr] (H-GLDVSVIPT-OH) | strongly induced antigen-specific CTL | confirmed |  |  |  |
| CC[C@H](C)[C@H](NC(=O)[C@H](CS)NC(=O)[C@@H](NC(=O)[C@H](C)NC(=O)[C@H](CC(C)C)NC(=O)[C@@H](N)Cc1ccccc1)[C@@H](C)O)C(=O)N[C@@H](CC(N)=O)C(=O)NCC(=O)N[C@H](C(=O)O)C(C)C [compound 23, Phe Leu Ala Thr Cys Ile Asn Gly Val] (H-FLATCINGV-OH) | strongly induced antigen-specific CTL | confirmed | confirmed |  |  |
| CSCC[C@H](NC(=O)[C@@H](N)Cc1ccc(O)cc1)C(=O)N[C@@H](CC(N)=O)C(=O)N[C@H](C(=O)N1CCC[C@H]1C(=O)NCC(=O)N[C@@H](CC(C)C)C(=O)N1CCC[C@H]1C(=O)N[C@H](C(=O)O)C(C)C)[C@@H](C)O [peptide #3, Tyr Met Asn Thr Pro Gly Leu Pro Val] (H-YMNTPGLPV-OH) | strongly induced antigen-specific CTL | confirmed |  | remarkable vaccine effect | immunogenicity of liposome-bound peptide ([2]; F1 mouse (HHD male x C57BL/6 female) expressing HLA-A*0201 and H-2b, ELISPOT, FIG. 5): high immunogenicity of the same level as that of mouse epitope 1630-1637; boost effect on immunization with VV-NS3 [2, 4]: absent; immunogenicity of peptide on immunization with VV-NS3 [2, 4]: not exhibited; immunogenicity of peptide on immunization with whole NS3 ([2]; immunization with recombinant viruses Adex1CA3269 and VV-NS3, peptide not liposome-bound, FIG. 6): low immunogenicity and low; IFN-γ production ([2]; peptide-bound liposome prepared from the single peptide, ELISPOT, FIG. 3): particularly remarkable |
| CSCC[C@H](NC(=O)CN)C(=O)N[C@@H](Cc1ccccc1)C(=O)N[C@@H](CC(=O)O)C(=O)N[C@@H](CO)C(=O)N[C@@H](CO)C(=O)N[C@H](C(=O)N[C@@H](CC(C)C)C(=O)N[C@@H](CS)C(=O)O)C(C)C [peptide #13, Gly Met Phe Asp Ser Ser Val Leu Cys] (H-GMFDSSVLC-OH) | strongly induced antigen-specific CTL | confirmed | confirmed | remarkable vaccine effect |  |
| CC[C@H](C)[C@H](N)C(=O)N[C@@H](CCSC)C(=O)N[C@H](C(=O)N[C@@H](CS)C(=O)N[C@@H](CCSC)C(=O)N[C@@H](CO)C(=O)N[C@@H](C)C(=O)N[C@@H](CC(=O)O)C(=O)N[C@@H](CC(C)C)C(=O)O)[C@@H](C)O [peptide #19, Ile Met Thr Cys Met Ser Ala Asp Leu] (H-IMTCMSADL-OH) | strongly induced antigen-specific CTL | confirmed |  | remarkable vaccine effect |  |
| IMACMSADL (Hepatitis C virus) [#19-3A] |  |  |  |  | vaccine effect, comparison of #19 and #19-3A bound to liposome ([1]; liposome inoculated twice, FIG. 11): higher vaccine effect |
| cys Met Ser Ala Asp Leu Glu Val Val (CMSADLEVV; Hepatitis C virus) [compound 17] | strongly induced antigen-specific CTL | confirmed | confirmed |  |  |

From patent publication US9814785B2, “Hepatitis C virus liposome vaccine” (Saitama Medical University, priority 2010, dated 2017)
